Measured values: US20230110998A1, “Compositions and Methods for Treatment of Cytokine Storm and Cytokine Release Syndrome” (Yinuoke Medicine Science Technology Company Ltd., priority 2020, published 2023)

What was measured:
[1] = tested on: IL-6; assay: Serum IL-6 levels in LPS-induced CRS; format: in vivo, BALB/c mice; details: 50 µg LPS i.p.; 10 mg/kg single i.p. injection; serum 2 hours after challenge; versus PBS, p=0.0023
Procedure: 8-week-old male BALB/c mice were used for these studies. The mice were challenged with 50 µg LPS (Sigma Cat. No. L2630) dissolved in 0.1 mL PBS, a dosage designed to ensure all animals survived the challenge, via intraperitoneal injection. Mouse serum was collected 2 hours after the challenge, and IL-6 was measured with the Mouse Il-6 Flex Set (BD Biosciences Cat. No. 558301).
Within 2 minutes of the LPS injection, test compound ketorolac (racemic mixture) or control vehicle (PBS) was administered at 10 mg per kg body weight by single intraperitoneal injection. 5 mice were included per experimental group.

[2] = tested on: LPS-induced CRS; assay: Acute diarrhea caused by high-dose LPS-induced CRS; format: in vivo, BALB/c mice; details: LPS 15 mg/kg i.p.
Procedure: 8-10-week-old female BALB/c mice were used for these studies. The mice were challenged with LPS at 15 mg per kg body weight, a dosage which had been empirically determined to induce diarrhea in 100% of tested subjects, via intraperitoneal injection. The mice were monitored for diarrhea symptoms, with diarrhea defined by the presence of watery stools 6 hours after treatment. Within 2 minutes of the LPS injection, test compound ketorolac (racemic mixture, suspended in PBS) or control vehicle (PBS) was administered at 0.1 mg (corresponding to 5 mg/kg) by single intraperitoneal injection.

[3] = tested on: LPS-induced CRS; assay: Survival of mice with LPS-induced CRS; format: in vivo, BALB/c mice; details: 0.2 mg LPS i.p.
Procedure: 8-week-old female BALB/c mice were used for these studies. […] The mice were challenged with 0.2 mg LPS (Sigma Cat. No. L2630) dissolved in 0.1 mL PBS via intraperitoneal injection. The mice were monitored for health condition and survival for a minimum of seven days. […]

[4] = tested on: LPS-induced CRS; assay: Body weight loss caused by low-dose LPS-induced CRS; format: in vivo, BALB/c mice; details: 0.05 mg LPS i.p.; 0.3 mg (15 mg/kg) oral; next day; compared with aspirin, p=0.0267
Procedure: 8-week-old female BALB/c mice were used for these studies. The mice were challenged with 0.05 mg LPS (Sigma Cat. No. L2630) via intraperitoneal injection. Body weight was measured before LPS challenge and the next day after the challenge.
Within 2 minutes of LPS injection, test compound (R)-ketorolac (0.3 mg, corresponding to 15 mg/kg), aspirin (0.3 mg, corresponding to 15 mg/kg), or control vehicle (PBS) was orally administered.

[5] = target: COX1 (Homo sapiens, UniProt P23219); details: no test described; cited from earlier work
Chain of COX1 (P23219 24-599): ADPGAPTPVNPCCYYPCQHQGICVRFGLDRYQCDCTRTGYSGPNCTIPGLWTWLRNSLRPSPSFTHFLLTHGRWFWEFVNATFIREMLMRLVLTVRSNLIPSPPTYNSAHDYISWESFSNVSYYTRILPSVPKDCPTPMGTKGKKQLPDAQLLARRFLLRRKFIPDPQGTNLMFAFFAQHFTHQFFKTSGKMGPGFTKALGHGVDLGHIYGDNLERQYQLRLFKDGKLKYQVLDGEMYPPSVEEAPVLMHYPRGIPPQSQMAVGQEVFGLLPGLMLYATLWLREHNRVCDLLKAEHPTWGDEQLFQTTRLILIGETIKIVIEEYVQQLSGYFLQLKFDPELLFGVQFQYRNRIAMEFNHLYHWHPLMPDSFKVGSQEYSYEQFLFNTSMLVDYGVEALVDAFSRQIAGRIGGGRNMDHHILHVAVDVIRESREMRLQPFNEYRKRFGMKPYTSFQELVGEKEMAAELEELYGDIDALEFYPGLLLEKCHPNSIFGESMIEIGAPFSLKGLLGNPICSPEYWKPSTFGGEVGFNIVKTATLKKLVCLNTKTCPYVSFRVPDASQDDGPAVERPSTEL

[6] = target: T1, COX2 (Homo sapiens, UniProt P35354); details: no test described; cited from earlier work
T1 sequence (P35354 18-604): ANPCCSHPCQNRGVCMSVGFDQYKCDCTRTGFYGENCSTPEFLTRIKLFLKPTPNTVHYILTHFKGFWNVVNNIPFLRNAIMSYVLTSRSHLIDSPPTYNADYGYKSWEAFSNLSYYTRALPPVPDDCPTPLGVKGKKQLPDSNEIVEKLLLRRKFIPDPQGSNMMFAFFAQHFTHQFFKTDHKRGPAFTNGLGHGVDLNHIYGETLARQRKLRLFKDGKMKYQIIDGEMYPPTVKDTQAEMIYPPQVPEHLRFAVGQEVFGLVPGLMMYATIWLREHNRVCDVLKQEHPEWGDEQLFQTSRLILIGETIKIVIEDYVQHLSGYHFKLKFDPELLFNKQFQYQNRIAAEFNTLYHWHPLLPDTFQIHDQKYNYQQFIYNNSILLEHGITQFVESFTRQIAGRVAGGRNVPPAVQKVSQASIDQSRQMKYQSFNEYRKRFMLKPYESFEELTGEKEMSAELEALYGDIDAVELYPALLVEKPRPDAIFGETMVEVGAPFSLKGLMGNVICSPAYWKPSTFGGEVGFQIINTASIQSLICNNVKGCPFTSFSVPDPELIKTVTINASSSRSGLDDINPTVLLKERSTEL

[7] = tested on: C26 tumor cell-induced cytokine storm; assay: Tumor-induced cytokine storm model, serum cytokines (Mouse-Cytokine-32-Plex assay); details: gavage 0.2 mg daily for six days, serum on day 7, compared to PBS controls
Procedure: Cytokine storm inducing C26 tumor cells were cultured in Advanced RPMI 1640 medium supplied with 5% fetal bovine serum and 1% penicillin/streptomycin and maintained in a 5% CO2, 37° C. humidified incubator. Tumor cells with viability of >90% were chosen for the study. Viable tumor cells (1 × 10^6 cells) were re-suspended in 100 µL of PBS and subcutaneously injected into the left flank of mice. All procedures were performed in laminar flow hood following sterile techniques.
6-8 week BALB/c male and female mice were used for these studies. Following tumor inoculation, the animals were returned to the cage. The mice were monitored for the appearance of palpable tumor and cytokine storm development by observing health condition change and testing serum cytokines with Mouse-Cytokine-32-Plex assay.
2-4 mice were included in each experimental group. On day 7, mouse blood samples were collected and allowed to clot for one hour at room temperature. The samples were then centrifuged for 15 min at 3,000 rpm (1500 × g) at 4° C. Thirty microliters of serum per treatment animal were assessed for cytokine profiles using a Mouse-Cytokine-32-Plex assay (Eve Technologies Corporation, Calgary, AB, Canada).

Row | Structure (SMILES) | serum IL-6 levels [1] | decrease of acute diarrhea occurrence ([2]; 0.1 mg (5 mg/kg) i.p., versus control) | diarrhea present, % of mice ([2]; 0.1 mg (5 mg/kg) single i.p. injection, watery stools 6 hours after treatment, n=8, control 87.5%) | survival rate ([3]; 10 mg/kg single dose, surviving mice / n=6) | survival rate ([3]; 10 mg/kg, control 33.3%) | increase in survival rate ([3]; 10 mg/kg, versus PBS control) | body weight loss [4] | activity against COX1 [5] | activity against COX2 [6] | serum concentration of G-CSF [7] | serum concentration of GM-CSF [7] | serum concentration of IL-1β [7] | serum concentration of IL-6 [7] | serum concentration of IL-7 [7] | serum concentration of IL-10 [7] | serum concentration of LIF [7] | serum concentration of MCP-1 [7] | serum concentration of MIP-1A [7] | serum concentration of TNF-α [7]
1 | O=C(c1ccccc1)c1ccc2n1CCC2C(=O)O (racemic) [ketorolac] | decreased serum IL-6 levels | 65% | 12.5% | – | – | – | – | – | – | – | – | – | – | – | – | – | – | – | –
2 | O=C(c1ccccc1)c1ccc2n1CC[C@H]2C(=O)O [(R)-ketorolac] | – | – | – | ⅚ | 83.3% | 50% | significantly reduced body weight loss | not active | not active | effective in reducing | effective in reducing | effective in reducing | effective in reducing | effective in reducing | effective in reducing | effective in reducing | effective in reducing | effective in reducing | effective in reducing
